In PubChem BioAssay AID1963828 (Molecular Pharmacology Branch, DTP, NCI, 2024):
Where “and” joins values, the source holds several entries; their conditions need not be identical. Equal entries are not always repeated.

System: 991263-137-R1-J2-PDC complex spheroid viability
Assay: Anticancer human tumor 991263-137-R1-J2-PDC patient-derived colon adenocarcinoma cell line growth inhibition [POLQ]
Details: for viability, T/C: stronger effect = lower value; for IC50: curve of compound
Method: Multicellular complex tumor spheroid response to Polymerase (POL) inhibitors (novobiocin, ART-558, RP6685) in combination with a variety of drugs and investigational agents in selected tumor cell lines
The POL inhibitors (novobiocin, ART-558, and RP6685) were evaluated both individually and in combination with standard of care and investigational anticancer small molecules within a complex spheroid model of solid tumors. . Complex spheroids include a stromal component modeled by human endothelial cells (HUVEC) and fibroblasts modeled by human mesenchymal stem cells (MSCs). The concentration ranges selected for each drug and investigational agent were based upon clinically achievable concentrations if the clinical Cmax of the agent was known.
Compounds. The drugs and investigational agents: novobiocin (NSC847541), ART-558 (NSC835418), RP-6685 (NSC848927), peposertib (NSC802822), ceralasertib (NSC780249), elimusertib (NSC800525), camonsertib (NSC841442), AZD-1390 (NSC803789), olaparib (NSC753686), talazoparib (NSC767125), rucaparib (NSC756644), sotorasib (NSC818433), MRTX-1133 (NSC836407), SN-38 (NSC673596), topotecan (NSC609699), epotoside (NSC141540), doxorubicin (NSC123127), gemcitabine (NSC613327), 5-fluorouracil (NSC19893), paclitaxel (NSC125973), vemurafenib (NSC761431), MSA-2 (NSC828583), SN-011 (NSC837082), adavosertib (NSC754352), prexasertib (NSC758257), carboplatin (NSC241240) and oxaliplatin (NSC266046), were obtained from the National Cancer Institute (NCI) Developmental Therapeutics Program Chemical Repository (21). The FDA-approved anticancer drug set is available from the Developmental Therapeutics Program at https://dtp.cancer.gov/organization/dscb/obtaining/. […] The stock solutions were prepared in dimethyl sulfoxide (DMSO, Sigma-Aldrich, St. Louis, MO, cat. D2650), except for the platinum compounds which were prepared in saline (Quality Biological, Gaithersburg, MD, cat. 114-055-101), at 800-fold the tested concentration and stored at -70 degrees C prior to their use. All drugs and investigational agents were tested over a range starting from a high concentration at or near the clinical Cmax and decreasing in half-log increments. If the clinical Cmax for an agent had not been determined, the highest concentration tested was 10 microM, except for SN-38, which was tested at a high concentration of 1 microM.
Cell Culture. All cells were maintained in an incubator at 37 degrees C and 5% CO2 with 95% humidity. The PDC lines were cultured according to standard operating procedures established by the NCI PDMR (https://pdmr.cancer.gov). Table 3 of the manuscript, lists the cell lines along with the number of the three cell types plated to form the mct-spheroids and media for tumor cell growth. After thawing, all PDC lines, except 997537-175-T-J1-PDC and 415267-285-R-J2-PDC, were cultured in Matrigel-coated flasks prepared with a working solution of 1X Ham's F-12 nutrient mix, without supplementation (Thermo Fisher Scientific, cat. 11765054), 100 U/mL penicillin-streptomycin (Thermo Fisher Scientific, cat. 15140122), and 2.5% Matrigel (Corning Inc., Corning, NY, cat. 354248) for the first three passages. The two PDC lines 997537-175-T-J1-PDC and 415267-285-R-J2-PDC were cultured on uncoated flasks. The 857933-349-R-J2-PDC line was cultured in 6C/Colon 1B media containing advanced DMEM/F-12 (Thermo Fisher Scientific, cat. 12634028), 10 mM HEPES (Thermo Fisher Scientific, cat. 15630080), 1X GlutaMAX supplement (Thermo Fisher Scientific, cat. 35050061), 0.1 mg/mL primocin (InvivoGen, San Diego, CA, cat. ant-pm-2), 10% defined fetal bovine serum, heat inactivated (HyClone Laboratories Inc., Logan, UT, cat. SH30070.03HI), 50% L-WRN conditioned media (ATCC, cat. CRL-3276), 1.25 mM N-Acetyl-L-cysteine (Sigma-Aldrich, cat. A9165), 10 mM nicotinamide (Sigma-Aldrich, cat. N0636), 1X B-27 supplement (Thermo Fisher Scientific, cat. 17504044), 1X N-2 supplement (Thermo Fisher Scientific, cat. […]
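Note: spheroids exposed to compounds for 7 days before readout.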
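Throughout, for viability, T/C: 100% = DMSO vehicle control viability.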

SMILES	viability, T/C (compound 0.0316 µM)	viability, T/C (compound 0.1 µM)	viability, T/C (compound 0.316 µM)	viability, T/C (compound 1 µM)	viability, T/C (compound 3.16 µM)	viability, T/C (compound 10 µM)	IC50	viability, T/C (compound 0.00316 µM)	viability, T/C (compound 0.01 µM)	viability, T/C (compound 0.00949 µM)	viability, T/C (compound 0.03 µM)	viability, T/C (compound 0.0949 µM)	viability, T/C (compound 0.3 µM)	viability, T/C (compound 0.949 µM)	viability, T/C (compound 3 µM)	viability, T/C (compound 0.000316 µM)	viability, T/C (compound 0.001 µM)
C#Cc1c(F)ccc2cc(O)cc(-c3ncc4c(N5CC6CCC(C5)N6)nc(OCC56CCCN5CC(F)C6)nc4c3F)c12 (stereo not given)	111% and 87.6% and 112%	107% and 91.8% and 88.9%	104% (2×) and 103%	108% and 105% and 109%	96.9% and 116% (2×)	104% and 99.7% and 82.3%	> 10 µM	–	–	–	–	–	–	–	–	–	–
C=CC(=O)N1CCN(c2nc(=O)n(-c3c(C)ccnc3C(C)C)c3nc(-c4c(O)cccc4F)c(F)cc23)C(C)C1 (stereo not given)	119% and 99.2% and 102%	104% (2×) and 89.8%	107% and 105% and 103%	118% and 107% and 104%	–	104% and 108% and 110%	> 10 µM	–	–	–	–	–	–	–	–	–	–
C=CCn1c(=O)c2cnc(Nc3ccc(N4CCN(C)CC4)cc3)nc2n1-c1cccc(C(C)(C)O)n1	87% and 106% and 98.4%	107% and 98.7% and 95.2%	–	86.5% and 94.9% and 95%	–	–	> 1 µM	103% and 105% and 106%	88.5% and 105% and 93.9%	–	–	–	–	–	–	–	–
CC(=O)O[C@H]1C(=O)[C@@]2(C)[C@H]([C@H](OC(=O)c3ccccc3)[C@]3(O)C[C@H](OC(=O)[C@H](O)[C@@H](NC(=O)c4ccccc4)c4ccccc4)C(C)=C1C3(C)C)[C@]1(OC(C)=O)CO[C@@H]1C[C@@H]2O	–	–	–	–	–	–	1.45 µM and 2.48 µM and 1.63 µM	–	–	79.8% and 86.8% and 96.5%	85.2% and 89.3% and 87.6%	85.4% and 84% and 87.8%	73.3% and 77.9% and 82.3%	52.2% and 63.6% and 54.8%	46.8% and 47.3% and 44.4%	–	–
CC(C)n1c(=O)n(C)c2cnc3cc(F)c(-c4ccc(OCCCN5CCCCC5)nc4)cc3c21	101% and 103% and 89.4%	103% and 104% and 95.9%	85.1% and 103% and 99.6%	110% and 121% and 129%	101% and 104% and 89.3%	–	> 10 µM	–	–	–	–	–	–	–	–	–	–
CC1COCCN1c1cc(-c2ccnn2C)c2ccnc(-c3ccn[nH]3)c2n1 (stereo not given)	112% and 99.9% and 100%	86.5% and 89.2% and 93.4%	81.6% and 77.2% and 83%	52.1% and 41.8% and 54.8%	35.4% and 24% and 43.9%	28.9% and 25.4% and 31.9%	1.35 µM and 0.759 µM and 1.69 µM	–	–	–	–	–	–	–	–	–	–
CC1COCCN1c1cc(C2(O)CC3CCC(C2)O3)c2cnn(-c3ccn[nH]3)c2n1 (stereo not given)	103% and 87.7% and 99%	95.7% and 94% and 86.5%	88.2% and 74.1% and 73.4%	56.8% and 58.5% and 54.9%	36.5% and 33.8% and 36.9%	30.4% and 26.9% and 29.3%	1.5 µM and 1.41 µM and 1.35 µM	–	–	–	–	–	–	–	–	–	–
CC1COCCN1c1cc(C2(S(C)(=N)=O)CC2)nc(-c2ccnc3[nH]ccc23)n1 (stereo not given)	107% and 98.9% and 98.6%	96.1% and 109% and 104%	100% and 94.6% and 92.8%	103% and 101% and 95.1%	83% and 97.9% and 103%	75.5% and 93.9% and 74.7%	> 10 µM	–	–	–	–	–	–	–	–	–	–
CCCS(=O)(=O)Nc1ccc(F)c(C(=O)c2c[nH]c3ncc(-c4ccc(Cl)cc4)cc23)c1F	110% and 93.5% and 111%	99.2% and 90.3% and 101%	108% and 94.4% and 86%	–	114% and 104% and 107%	97.2% and 94.1% and 109%	> 10 µM	–	–	–	–	–	–	–	–	–	–
CC[C@@]1(O)C(=O)OCc2c1cc1n(c2=O)Cc2cc3c(CN(C)C)c(O)ccc3nc2-1	100% and 91.2% and 89.8%	90.4% and 80.7% and 84.4%	–	–	–	–	> 0.1 µM	110% (2×) and 111%	105% and 101% and 91.5%	–	–	–	–	–	–	111% and 94.9% and 103%	101% and 96.9% and 107%
CCc1c2c(nc3ccc(O)cc13)-c1cc3c(c(=O)n1C2)COC(=O)[C@]3(O)CC	63% and 64.4% and 51.9%	49.8% and 45.2% and 54.4%	37.3% and 37.2% and 36.9%	25.2% and 26.9% and 20.9%	–	–	0.099 µM and 0.0833 µM and 0.0939 µM	88.8% and 83.4% and 108%	80% and 74.9% and 74%	–	–	–	–	–	–	–	–
CCc1cc2c(N3CCc4c(cc(Cn5ccnc5)cc4-c4cn(C)nc4C(F)(F)F)C3=O)cc(C)nc2c(OC)n1	107% and 96% and 92.8%	101% and 98.5% and 96.4%	–	–	97.9% and 96.1% and 96.5%	93.5% and 82.6% and 105%	> 10 µM	–	–	–	–	–	–	–	–	–	–
CCc1cc2c(N3CCc4c(cc(Cn5ccnc5)cc4-c4cn(C)nc4C(F)(F)F)C3=O)ccnc2c(OC)n1	95% and 111% and 105%	98.7% and 90.5% and 101%	94.4% and 103% and 99.7%	101% and 91.2% and 96.7%	91.8% and 97.7% and 83.7%	98.8% and 88.6% and 94.2%	> 10 µM	–	–	–	–	–	–	–	–	–	–
